Results reported in patent US20220213030A1, “AMINOGUANIDINE HYDRAZONES AS RETROMER STABILIZERS USEFUL FOR TREATING NEUROLOGICAL DISEASES” (OSPEDALE SAN RAFFAELE SRL, priority 2019, published 2022).

Columns and labels:
[1] = test system: G93A mice; experiment: Motor neuron counts in ventral horn of lumbar spinal cord of G93A mice; assay type: in vivo, mouse; conditions: 10 mg/kg daily, day 100
Method: Mice were sacrificed at day 100, and lumbar SCs assayed for studying MNs cell morphology and numbers. We initially scored NeuN^+ neurons in the ventral horn of the SC to monitor bona fide motor neurons.
Sections from mice (frozen cryo sections) or glass covers containing cells were washed three times in PBS 1× (Lonza, 5 min each), and incubated in the following blocking mix: PBS 1×/FBS 10% (Invitrogen), BSA 1 mg/mL (Sigma), TritonX100 0.1% (Sigma), for 1 h at room temperature. Antibodies were diluted in blocking mix and incubated at +4° C. overnight according manufacturer's instructions. The following day, sections were rinsed in PBS and fluorescent secondary antibodies—i.e. never deriving from the species from which the primary antibodies are derived—(Alexafluor conjugated) diluted in blocking mix, were used according to the manufacturer's instructions. Slides were incubated in Hoechst 33342 (Sigma) for nuclei counterstaining. When necessary, we performed antigens retrieval by boiling samples in 10 mM sodium citrate (pH 6) for 5 min. […]
Mice were maintained under pathogen-free conditions at San Raffaele Hospital mouse facility (Milan, Italy). […] Animal cohort numbers were determined by power analysis based on preliminary results.

[2] = target: VPS35 (Mus musculus, UniProt Q9EQH3+Q9QZ88); experiment: VPS35 levels in spinal cord extracts of C57BL6J mice by western blot; assay type: in vivo; parameters: Lumbar spinal cords were dissected from saline perfused mice and rapidly homogenized; from tissue; host or cells: lumbar spinal cord of mice; conditions: 10 mg/kg daily intraperitoneal for 7 days
Method: We next asked whether the compound 2a can cross the blood brain barrier (BBB) of the brain. We run a pharmacokinetic assay on C57BL6J mice that received daily intraperitoneal injections of compound 2a (10 mg/Kg/day). Mice were sacrificed after 1, 7, 15 and 30 days saline perfused to avoid the CNS contamination of compounds contained in blood circulation and brains used for the determination of compound 2a levels by mass spectrometry. […] We next investigated in vivo if the retromer stabilization occurs in response to Compound 2a treatment. We intraperitoneally injected R55 and Compound 2a in adult C57BL6J mice as above described. After one week, mice were sacrificed, proteins extracts were assayed by western blot.
Lumbar spinal cords were dissected from saline perfused mice and rapidly homogenized in the following lysis buffer: Tris-HCl 10 mM pH 8, EDTA pH 8 1 mM, NaCl 100 mM, NP40 1% and protease inhibitor cocktail (Sigma). Protein extracts were obtained using a tight-fitting glass Potter tissue grinder (1 ml; Wheaton) and then sonicated at a frequency of 20 kHz (10 times-1s). […] Protein concentrations were measured by BCA protein assay kit (Thermofisher) according to the manufacturer's recommendations. […] Quantifications were done using the Image Lab 6.0.1 software (Bio-Rad).

## N=C(N)NN=Cc1cccc(C=NNC(=N)N)c1 [Compound 2a, 1,3-Bis-amino guanidine phenyl hydrazone]
[1]
  numbers of NeuN+ motor neurons in the ventral horn: significantly higher numbers of motor neurons than vehicle-treated G93A mice
[2]
  VPS35 levels in SC extracts (ratio versus vehicle-treated mice): ≈ 1.7
